Experimental data from publication PMC9694494, “Resveratrol/Hydrazone Hybrids: Synthesis and Chemopreventive Activity against Colorectal Cancer Cells” (Pharmaceutics, 2022).

Columns and labels:
Format in all cases: cell-based, human
[1] = test system: SW480 cells; assay: Cell cycle analysis (PI flow cytometry), SW480; settings: SW480, 48 h treatment
Procedure: (§1) Cell staining with the fluorescent propidium iodide (PI) was used to measure cell cycle distribution. The assays were carried out following the previous methodology described by Nicoletti et al. (1991). Briefly, 2.5 × 10^5 cells/well were seeded in 6-well tissue culture plates at 37 °C and 5% CO2. After 24 h of adherence, cells were treated during 48 h with hybrids 6e and 7, together with the vehicle control. At the end of each treatment, cells were scraped, and the centrifuged pellet was resuspended in 1.8 mL of 70% ethanol at 4 °C to fix the cells overnight. Then, after centrifugation, cells were washed twice in versene buffer to completely remove the alcohol, besides, they were further resuspended in 300 µL of PBS containing 0.25 mg/mL RNAse (Type I-A, Sigma-Aldrich, Darmstadt, Germany) and 0.1 mg/mL PI. After the incubation in the dark (for 30 min at room temperature), 10,000 events were analyzed with a FACS Canto II flow cytometer and the software BD FACS Diva 6.1.3. (BD Biosciences, San Jose, CA, USA). The PI fluorescence signal was analyzed with excitation at 488 nm (using a Sapphire laser), and detection at 610 nm. The cell cycle model was fixed with FlowJo 7.6.2 (Ashland, OR, USA), applying the Dean-Jett-Fox model.

[2] = test system: SW620 cells; assay: Cell cycle analysis (PI flow cytometry), SW620; settings: SW620, 48 h treatment
Procedure: as §1

[3] = test system: SW480 cells; assay: Cell death induction (Annexin-V/FITC and PI flow cytometry), SW480; settings: SW480, 48 h exposure
Procedure: Flow cytometric analysis using a double fluorescent staining with Annexin-V/FITC and propidium iodide (Roche Diagnostics) was used to evaluate phosphatidylserine exposure and membrane damage. Colon cancer cells (SW480 and SW620) were seeded at 2.5 × 10^5 in each 6-well plate and treated for 48 h. […] At the end of each treatment, cells were scraped and centrifuged. The pellet was resuspended in versene buffer with the fluorescent dyes and incubated for 20 min in darkness. Data were analyzed with FlowJo 7.6.2 (Ashland, OR, USA). Cells with double-positive staining for Annexin-V and PI were considered late apoptotic or dead cells, while the single staining with Annexin-V/FITC (Annexin-V/FITC positive) or propidium iodide (PI positive) was considered for early apoptotic or necrotic cells, respectively. Assays were performed twice.

SMILES | Cell cycle distribution G0/G1 [1] | Cell cycle distribution G2/M [1] | Cell cycle distribution Sub G0/G1 [2] | plasma membrane integrity (PI positive staining) [3]
COc1ccc(C(=O)N/N=C/c2c(O)cc(O)cc2/C=C/c2ccc(O)cc2)c(OC)c1 [6e, N′-((E)-2,4-dihydroxy-6-((E)-4-hydroxystyryl)benzylidene)-2,4-dimethoxybenzohydrazide] | 58.95% | 21.31% |  | 
O=C(N/N=C/c1c(O)cc(O)cc1/C=C/c1ccc(O)cc1)c1ccncc1 [compound 7, N′-((E)-2,4-dihydroxy-6-((E)-4-hydroxystyryl)benzylidene)isonicotinohydrazide] |  |  | 20.60% | induced plasma membrane disintegration
